Laboratory results taken from US20040248821A1, “Composition for the treatment of lupus” (priority 2001, published 2004).
Entries after “also recorded” stand apart in the source; their conditions may differ.

How the values were obtained:
[1] = test system: patients with Lupus (SLE); assay: Treatment of human Lupus patients with the inventive composition (case reports); type: in vivo; details: flavonoid replacing Quercetin in the inventive formula; limited tests
[2] = test system: osteoarthritis or Lupus caused joint inflammation; details: Bromelain alone; cited from earlier work

Compound | Effectiveness of the flavonoid in the inventive formula (with Bromelain and Vitamin C) [1] | Ameliorating joint pain [2]
O=c1c(O)c(-c2cc(O)c(O)c(O)c2)oc2cc(O)cc(O)c12 [Myricetin] | also effective; also recorded: somewhat effective | –
O=c1cc(-c2ccc(O)c(O)c2)oc2cc(O)cc(O)c12 [Luteolin] | also effective; also recorded: somewhat more effective than Quercetin | –
Bromelain | – | not effective
